Assay results: article PMC10582335 (Frontiers in Pharmacology, 2023)
Read-outs that look alike come from different tables or passages of the source.

Key:
[1] = test system: Abcb1a mRNA (P-gp); assay: qRT-PCR of mRNA expression in rat tissues after multiple-dose almonertinib; format: in vivo; conditions: rats given almonertinib for nine consecutive days, n = 3
Method: Sixty healthy rats were randomly divided into ten groups (n = 6). […] Blood samples were centrifuged at 3,500 g for 10 min, and then the supernatant was gathered and stored in a -80°C refrigerator. After, rat intestine, kidney and liver tissues were harvested for molecular analysis on the ninth or fifth day after treatment with the corresponding drugs for each group. The tissues were placed immediately at -80°C. qRT-PCR analysis was used to determine mRNA levels of Abcb1a, Abcg2 and Cyp3a1 in the liver and intestines, and Abcb1a and Abcg2 in the kidney of rats. Total RNA was isolated from frozen liver, intestine and kidney samples using TRNzol Universal according to the manufacturer's instructions. A Bio Tek Epoch (Bio Tek Instruments, Inc., Winooski, VT, United States) was employed to quantify the purity and concentration of the total RNA based on the ratio of the absorbance between 260 and 280 nm. RNA samples of 1 μg were transformed to complementary DNA (cDNA) using the […] Kit. The real-time PCR assays were accomplished using a two-step amplification method based on the recommendations in a SLAN-96S Real-Time PCR system (Shanghai Hongshi Medical Technology Co., Ltd. Shanghai, China). […] was used as an internal control, and the PCR cycling criteria were as follows: 95°C for 15 min, then 40 cycles of 95°C for 10, and 60°C for 32 s.

[2] = Pharmacokinetics of rivaroxaban in rats, alone and after multiple doses of almonertinib; format: in vivo, Sprague-Dawley (SD) rats; conditions: for AUC(0-inf) / Cmax / Tmax / CL/F / MRT last / MRT inf / Vd/F: po; for CL/F: read-out: CLz/F (converted); for MRT last: read-out: MRT0-t; for MRT inf: read-out: MRT0-∞; for Vd/F: read-out: Vz/F; for half-life: read-out: t1/2z (converted)
Method: Analytes were measured using UPLC-MS/MS, which was equipped with an LC-30A ultra-performance liquid chromatography (Shimadzu, Kyoto, Japan) and Sciex Triple Quad 5,500 tandem triple quadrupole mass spectrometer (AB Sciex, Framingham, MA, United States). Chromatographic separation was performed using an XSelect HSS T3 column (2.1 mm × 100 mm, 2.5 µm, Waters, Milford, MA, United States) at 40°C by gradient elution. The mobile phase consisted of water (A) and acetonitrile (0.1% formic acid, B). The elution procedure was as follows: 0–1.0 min, 50% B; 1.0–1.5 min, 50%→98% B; 1.5–3.0 min, 98% B; 3.0–3.1 min, 98%→50% B; 3.1–4.1 min, 50% B. The flow rate was 0.35 mL min^−1, and the injection volume was 6 µL.
The positive ion mode with multiple reaction detection was used. […] The mass spectrometer conditions, including delustering potential (DP) and collision energy (CE) of the compounds, are shown in Table 1. Other parameters of the mass spectrometer were as follows: ion source gas 1, 60.0 psi; ion source gas 2, 50.0 psi; curtain gas, 25.0 psi; source temperature, 500°C; ion spray voltage, 5,500 V.
Protein precipitation was used to process the plasma samples. 5 μL of mixed IS working solution, 50 µL of the plasma samples, and 150 µL of acetonitrile were vortex-mixed for 1.0 min. Then, the mixture was centrifuged at 13,000 × g for 10 min; 100 µL of 50% acetonitrile-water was added to 100 µL of supernatant, vortex-mixed, and centrifuged again. The supernatant was transferred to a 96-well plate for sample analysis.
Healthy male Sprague-Dawley (SD) rats weighing 250 ± 20 g were purchased from Beijing Huafukang Biotechnology Co., Ltd. (Beijing, China). The license number is SCXK (Beijing) 2019–0008. The study was approved and supervised by the Animal Ethics Committee of Hebei General Hospital (Shijiazhuang, China) (No. 2023024). Adaptive feeding (sufficient food and water) was performed for 1 week before the experiment. All the rats were kept under suitable conditions (12 h dark-light diurnal cycle, appropriate temperature at 23°C–25°C, relative humidity of 50% ± 10%). All rats were fasted for 12 h before starting the experiments while still given water.
Sixty healthy rats were randomly divided into ten groups (n = 6). […] Blood samples were centrifuged at 3,500 g for 10 min, and then the supernatant was gathered and stored in a −80°C refrigerator. After, rat intestine, kidney and liver tissues were harvested for molecular analysis on the ninth or fifth day after treatment with the corresponding drugs for each group. The tissues were placed immediately at −80°C.
DAS 2.1.1 Software (Mathematical Pharmacology Professional Committee of China, Shanghai, China) was applied to calculate pharmacokinetic parameters using non-compartmental analysis. SPSS 25.0 statistical software (SPSS Inc., Chicago, IL, United States) was applied to statistically analyze the main pharmacokinetic parameters, including AUC, Cmax, Tmax, t1/2, CLz/F, Vz/F, and MRT. Statistical comparisons were conducted using a analysis of variance, t-test or nonparametric rank-sum test depending on the data type; p-value <0.05 was deemed statistically significant.

[3] = male, Sprague-Dawley, rat, plasma, 1 mg/kg, rats, oral rivaroxaban 1 mg/kg after almonertinib 15 mg/kg for nine days (group 6), mean ± SD, n = 6
[4] = male, Sprague-Dawley, rat, plasma, 2 mg/kg, rats, oral rivaroxaban 2 mg/kg after almonertinib 15 mg/kg for nine days (group 5), mean ± SD, n = 6
[5] = male, Sprague-Dawley, rat, plasma, 2 mg/kg, rats, oral rivaroxaban 2 mg/kg alone (group 1), mean ± SD, n = 6
[6] = rats, oral rivaroxaban 2 mg/kg after almonertinib 15 mg/kg for nine days (group 5), mean ± SD, n = 6
[7] = rivaroxaban 1 mg/kg with multiple doses of almonertinib (group 6) compared to group 1, rats
[8] = rivaroxaban 2 mg/kg with multiple doses of almonertinib (group 5) compared to group 1, rats

C=CC(=O)Nc1cc(Nc2nccc(-c3cn(C4CC4)c4ccccc34)n2)c(OC)cc1N(C)CCN(C)C [almonertinib, Almonertinib]
inhibition of mRNA expression of Abcb1a ([1]; intestine): 51.3% | inhibition of mRNA expression of Abcb1a ([1]; kidney): 42.9%

O=C(NC[C@H]1CN(c2ccc(N3CCOCC3=O)cc2)C(=O)O1)c1ccc(Cl)s1 [rivaroxaban, Rivaroxaban]
increase of AUC of rivaroxaban ([2]; after a half dose reduction of rivaroxaban, multiple doses of almonertinib, rats (discussion)): ~1.9 fold | increase of AUC of rivaroxaban ([2]; co-administration with almonertinib for multiple doses, rats (discussion, AUC not specified further)): more than 3.0 fold | AUC(0-inf) [2, 3]: 2230 ng·h/mL | Cmax [2, 3]: 457 ± 101 ng/mL | Tmax [2, 3]: 2.08 ± 0.49 h | CL/F [2, 3]: 7.83 mL/min/kg | MRT last [2, 3]: 4.1 ± 0.41 h | MRT inf [2, 3]: 4.3 ± 0.47 h | Vd/F [2, 3]: 2.83 ± 0.55 L/kg | AUC(0-inf) [2, 4]: 3540 ng·h/mL | Cmax [2, 4]: 862 ± 110 ng/mL | Tmax [2, 4]: 2.21 ± 0.95 h | CL/F [2, 4]: 10 mL/min/kg | MRT last [2, 4]: 3.94 ± 0.56 h | MRT inf [2, 4]: 4.12 ± 0.6 h | Vd/F [2, 4]: 3.75 ± 0.72 L/kg | AUC(0-inf) [2, 5]: 797 ± 169 ng·h/mL | Cmax [2, 5]: 200 ± 38 ng/mL | Tmax [2, 5]: 0.92 ± 0.3 h | CL/F [2, 5]: 43.7 mL/min/kg | MRT last [2, 5]: 4.72 ± 0.57 h | MRT inf [2, 5]: 6.09 ± 1.45 h | Vd/F [2, 5]: 26.4 ± 18 L/kg | AUC(0-t) ([2]; male, Sprague-Dawley, rat, plasma, rats, oral rivaroxaban 1 mg/kg after almonertinib 15 mg/kg for nine days (group 6), mean ± SD, n = 6, read-out: AUC0-t): 2220 ng·h/mL | half-life ([2]; male, Sprague-Dawley, rat, plasma, rats, oral rivaroxaban 1 mg/kg after almonertinib 15 mg/kg for nine days (group 6), mean ± SD, n = 6): 4.3 ± 0.91 h | AUC(0-t) ([2]; male, Sprague-Dawley, rat, plasma, rats, oral rivaroxaban 2 mg/kg alone (group 1), mean ± SD, n = 6, read-out: AUC0-t): 764 ± 164 ng·h/mL | half-life ([2]; male, Sprague-Dawley, rat, plasma, rats, oral rivaroxaban 2 mg/kg alone (group 1), mean ± SD, n = 6): 6.84 ± 3.46 h | AUC(0-t) [2, 6]: 3,511.15 ± 783.84 μg/L*h | t1/2z [2, 6]: 4.47 ± 0.80 h | Tmax of rivaroxaban longer than control [2, 7]: 1.26 fold | decrease of CLz/F of rivaroxaban [2, 7]: 4.57 fold | increase of AUC0-t of rivaroxaban [2, 7]: 1.90 fold | Tmax of rivaroxaban longer than control [2, 8]: 1.40 fold | decrease of CLz/F of rivaroxaban [2, 8]: 3.37 fold | increase of AUC0-t of rivaroxaban [2, 8]: 3.60 fold | increase of AUC0-∞ of rivaroxaban [2, 8]: 3.44 fold
